Measurements taken from patent publication US20260297080A1, “BICYCLIC COMPOUNDS AS CDK INHIBITORS” (BeOne Medicines I GmbH, priority 2022, published 2026).

Key:
CDK2/Cyclin E1 = CDK2/Cyclin E1 (Homo sapiens, UniProt P24941); test: CDK2/Cyclin E1 Biochemical Assay (TR-FRET), 0.060 mM ATP; settings: 0.15 μM Rb (Ser780)-biotin substrate, pH7.0, 60 min preincubation, 120 min reaction, room temperature
Procedure, shortened: (§1)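 Inhibitor concentrations up to 10 μM were preincubated with each cyclin–kinase complex for 60 minutes before ATP and biotinylated Rb (Ser780) substrate (0.15 μM) were added. After 120 minutes at room temperature, phosphorylation was quantified by HTRF and IC50 values were fitted with a four-parameter logistic equation.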

CDK1/Cyclin B1 = CDK1/Cyclin B1 (Homo sapiens, UniProt P06493); test: CDK1/Cyclin B1 Biochemical Assay (TR-FRET), 0.015 mM ATP; settings: 0.15 μM Rb (Ser780)-biotin substrate, pH7.0, 60 min preincubation, 120 min reaction, room temperature
Procedure, shortened: as §1

Sequence of CDK1/Cyclin B1 (P06493 whole entry): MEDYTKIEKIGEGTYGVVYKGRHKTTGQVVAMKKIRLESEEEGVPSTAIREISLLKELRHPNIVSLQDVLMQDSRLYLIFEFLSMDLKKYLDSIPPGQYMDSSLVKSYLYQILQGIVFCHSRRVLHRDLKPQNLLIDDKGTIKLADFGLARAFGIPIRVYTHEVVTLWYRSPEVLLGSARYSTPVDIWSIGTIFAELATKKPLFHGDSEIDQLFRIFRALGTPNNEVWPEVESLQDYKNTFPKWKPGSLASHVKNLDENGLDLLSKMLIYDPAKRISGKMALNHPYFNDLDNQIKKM
Sequence of CDK1/Cyclin B1 (P14635 whole entry partner): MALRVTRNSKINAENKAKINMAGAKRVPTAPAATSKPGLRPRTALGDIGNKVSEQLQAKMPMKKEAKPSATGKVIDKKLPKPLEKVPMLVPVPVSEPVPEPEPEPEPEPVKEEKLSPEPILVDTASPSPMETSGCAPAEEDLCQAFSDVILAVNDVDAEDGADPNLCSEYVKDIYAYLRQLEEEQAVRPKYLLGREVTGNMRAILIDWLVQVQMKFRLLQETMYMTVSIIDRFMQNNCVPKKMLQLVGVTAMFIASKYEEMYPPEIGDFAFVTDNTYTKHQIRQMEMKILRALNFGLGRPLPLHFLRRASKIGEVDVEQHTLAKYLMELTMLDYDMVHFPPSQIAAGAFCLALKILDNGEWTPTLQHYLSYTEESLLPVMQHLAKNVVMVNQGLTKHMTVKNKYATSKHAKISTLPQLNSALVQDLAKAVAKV

Structure (SMILES) | IC50 (CDK2/Cyclin E1) | IC50 (CDK1/Cyclin B1)
CC(C)NC(=O)O[C@H]1CC[C@@H](c2cc(Nc3ccc4c(c3)NS(=O)(=O)C4(C)C)n[nH]2)C1 (relative stereo) [Example 304, cis-3-(3-((3,3-dimethyl-2,2-dioxido-1,3-dihydrobenzo[c]isothiazol-6-yl)amino)-1H-pyrazol-5-yl)cyclopentyl isopropylcarbamate] | 29 nM | 251 nM
CCCNC(=O)O[C@H]1CC[C@@H](c2cc(Nc3ccc4c(c3)NS(=O)(=O)C4)n[nH]2)C1 (relative stereo) [Example 305, cis-3-(3-((2,2-dioxido-1,3-dihydrobenzo[c]isothiazol-6-yl)amino)-1H-pyrazol-5-yl)cyclopentyl propylcarbamate] | 6.5 nM | 58 nM
CC[C@H](C)NC(=O)O[C@H]1CC[C@@H](c2cc(Nc3ccc4c(c3)NS(=O)(=O)C4)n[nH]2)C1 (relative stereo) [Example 306, cis-3-(3-((2,2-dioxido-1,3-dihydrobenzo[c]isothiazol-6-yl)amino)-1H-pyrazol-5-yl)cyclopentyl((S)-sec-butyl)carbamate] | 2.8 nM | 27 nM
CC(C)NC(=O)O[C@H]1CC[C@@H](c2cc(Nc3ccc4c(c3)N(C)S(=O)(=O)C4)n[nH]2)C1 (relative stereo) [Example 308, cis-3-(3-((1-methyl-2,2-dioxido-1,3-dihydrobenzo[c]isothiazol-6-yl)amino)-1H-pyrazol-5-yl)cyclopentyl isopropylcarbamate] | 2.2 nM | 26 nM
CC(C)NC(=O)O[C@H]1CC[C@@H](c2cc(Nc3cc(F)c4c(c3)NS(=O)(=O)C4)n[nH]2)C1 (relative stereo) [Example 311, cis-3-(3-((4-fluoro-2,2-dioxido-1,3-dihydrobenzo[c]isothiazol-6-yl)amino)-1H-pyrazol-5-yl)cyclopentyl isopropylcarbamate] | 6 nM | 158 nM
CC(C)NC(=O)O[C@H]1CC[C@@H](c2cc(Nc3ccc4c(c3F)S(=O)(=O)CC4)n[nH]2)C1 (relative stereo) [Example 314, cis-3-(3-((7-fluoro-1,1-dioxido-2,3-dihydrobenzo[b]thiophen-6-yl)amino)-1H-pyrazol-5-yl)cyclopentyl isopropylcarbamate] | 1.6 nM | 44 nM
CC(C)NC(=O)O[C@@H]1CC[C@H](c2cc(Nc3ccc4c(c3)N(C(=O)OC(C)(C)C)CS4(=O)=O)n[nH]2)C1 (relative stereo) [Example 319, cis-tert-butyl 5-((5-(3-((isopropylcarbamoyl)oxy)cyclopentyl)-1H-pyrazol-3-yl)amino)benzo[d]thiazole-3 (2H)-carboxylate 1,1-dioxide] | 85 nM | 1750 nM
CC(C)NC(=O)O[C@H]1CC[C@@H](c2cc(Nc3ccc4c(c3F)CN(CC3CN(S(C)(=O)=O)C3)S4(=O)=O)n[nH]2)C1 (relative stereo) [Example 326, cis-3-(3-((4-fluoro-2-((1-(methylsulfonyl)azetidin-3-yl)methyl)-1,1-dioxido-2,3-dihydrobenzo[d]isothiazol-5-yl)amino)-1H-pyrazol-5-yl)cyclopentyl isopropylcarbamate] | 6.6 nM | 290 nM
O=C(NC1(CO)CC1)O[C@H]1CC[C@@H](c2cc(Nc3ccc4c(c3F)CNS4(=O)=O)n[nH]2)C1 (relative stereo) [Example 333, cis-3-(3-((4-fluoro-1,1-dioxido-2,3-dihydrobenzo[d]isothiazol-5-yl)amino)-1H-pyrazol-5-yl)cyclopentyl(1-(hydroxymethyl)cyclopropyl)carbamate] | 10 nM | 402 nM

Second part, the molecule after the results:

IC50 (CDK2/Cyclin E1) | IC50 (CDK1/Cyclin B1) | Structure (SMILES)
2.5 nM | 18 nM | CC1(NC(=O)O[C@H]2CC[C@@H](c3cc(Nc4ccc5c(c4)NS(=O)(=O)C5)n[nH]3)C2)CC1 (relative stereo) [Example 307, cis-3-(3-((2,2-dioxido-1,3-dihydrobenzo[c]isothiazol-6-yl)amino)-1H-pyrazol-5-yl)cyclopentyl(1-methylcyclopropyl)carbamate]
1.4 nM | 6.1 nM | CC(C)NC(=O)O[C@H]1CC[C@@H](c2cc(Nc3ccc4c(c3)N(CCO)S(=O)(=O)C4)n[nH]2)C1 (relative stereo) [Example 309, cis-3-(3-((1-(2-hydroxyethyl)-2,2-dioxido-1,3-dihydrobenzo[c]isothiazol-6-yl)amino)-1H-pyrazol-5-yl)cyclopentyl isopropylcarbamate]
81 nM | 2200 nM | CC(C)NC(=O)O[C@H]1CC[C@@H](c2cc(Nc3cc4c(cc3F)CS(=O)(=O)N4)n[nH]2)C1 (relative stereo) [Example 310, cis-3-(3-((5-fluoro-2,2-dioxido-1,3-dihydrobenzo[c]isothiazol-6-yl)amino)-1H-pyrazol-5-yl)cyclopentyl isopropylcarbamate]
4.3 nM | 147 nM | CC(C)NC(=O)O[C@H]1CC[C@@H](c2cc(Nc3ccc4c(c3F)NS(=O)(=O)C4)n[nH]2)C1 (relative stereo) [Example 312, cis-3-(3-((7-fluoro-2,2-dioxido-1,3-dihydrobenzo[c]isothiazol-6-yl)amino)-1H-pyrazol-5-yl)cyclopentyl isopropylcarbamate]
257 nM | 1750 nM | CC(C)NC(=O)O[C@@H]1CC[C@H](c2cc(Nc3ccc4c(c3)S(=O)(=O)CN4C(=O)OC(C)(C)C)n[nH]2)C1 (relative stereo) [Example 318, cis-tert-butyl 6-((5-(3-((isopropylcarbamoyl)oxy)cyclopentyl)-1H-pyrazol-3-yl)amino)benzo[d]thiazole-3 (2H)-carboxylate 1,1-dioxide]
134 nM | 1760 nM | CC(C)NC(=O)O[C@H]1CC[C@@H](c2cc(Nc3ccc4c(c3)NS(=O)(=O)N4)n[nH]2)C1 (relative stereo) [Example 320, cis-3-(3-((2,2-dioxido-1,3-dihydrobenzo[c][1,2,5]thiadiazol-5-yl)amino)-1H-pyrazol-5-yl)cyclopentyl isopropylcarbamate]
3.3 nM | 83 nM | C[C@@H](CO)NC(=O)O[C@H]1CC[C@@H](c2cc(Nc3ccc4c(c3)CS(=O)(=O)N4C)n[nH]2)C1 (relative stereo) [Example 324, cis-3-(3-((1-methyl-2,2-dioxido-1,3-dihydrobenzo[c]isothiazol-5-yl)amino)-1H-pyrazol-5-yl)cyclopentyl((S)-1-hydroxypropan-2-yl)carbamate]
2.7 nM | 175 nM | CC(C)(CO)NC(=O)O[C@H]1CC[C@@H](c2cc(Nc3ccc4c(c3F)CNS4(=O)=O)n[nH]2)C1 (relative stereo) [Example 329, cis-3-(3-((4-fluoro-1,1-dioxido-2,3-dihydrobenzo[d]isothiazol-5-yl)amino)-1H-pyrazol-5-yl)cyclopentyl(1-hydroxy-2-methylpropan-2-yl)carbamate]
3.9 nM | 229 nM | COCC(C)NC(=O)O[C@H]1CC[C@@H](c2cc(Nc3ccc4c(c3F)CS(=O)(=O)N4C)n[nH]2)C1 (relative stereo) [Example 331, cis-3-(3-((4-fluoro-1-methyl-2,2-dioxido-1,3-dihydrobenzo[c]isothiazol-5-yl)amino)-1H-pyrazol-5-yl)cyclopentyl(1-methoxypropan-2-yl)carbamate]
